Reference: US8754220B2, “Quinolizidinone carboxamide M1 receptor positive allosteric modulators” (Merck Sharp & Dohme Corp., priority 2009, dated 2014)

Each molecule was assayed against T1, acetylcholine muscarinic M1 receptor (CHOnfat/hM1 cells) (Homo sapiens, UniProt P11229) (assay: FLIPR intracellular calcium assay for M1 positive allosteric modulator activity (acetylcholine EC20)). Conditions: not given.
T1 construct: expressed in transfected cells; host or cells: CHOnfat (CHO cells; selected with Geneticin)
T1 sequence (P11229 1-460): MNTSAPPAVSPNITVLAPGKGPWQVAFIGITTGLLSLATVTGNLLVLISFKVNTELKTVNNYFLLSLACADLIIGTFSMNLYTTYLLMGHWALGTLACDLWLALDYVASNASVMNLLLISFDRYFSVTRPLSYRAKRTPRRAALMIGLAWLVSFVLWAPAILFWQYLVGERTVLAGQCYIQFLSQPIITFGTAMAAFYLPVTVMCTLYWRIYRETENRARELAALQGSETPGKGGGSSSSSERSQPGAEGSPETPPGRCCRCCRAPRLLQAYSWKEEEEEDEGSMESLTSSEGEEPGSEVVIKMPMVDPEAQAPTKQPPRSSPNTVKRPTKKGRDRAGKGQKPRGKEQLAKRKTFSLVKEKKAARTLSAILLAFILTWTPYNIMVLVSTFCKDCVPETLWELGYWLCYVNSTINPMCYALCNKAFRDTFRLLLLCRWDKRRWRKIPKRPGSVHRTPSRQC
Type: cell-based
Protocol: The assay studies the effect of one or several concentrations of test compounds on basal or acetylcholine-stimulated Ca^2+ levels using FLIPR.
Compounds are prepared and subjected to a preincubation period of 4 min. Thereafter, a single EC20 concentration of acetylcholine is added to each well (3 nM final). The intracellular Ca^2+ level of each sample is measured and compared to an acetylcholine control to determine any modulatory activity.
Cells: CHOnfat/hM1, hM2, hM3 or hM4 cells are plated 24 hr before the assay at a density of 18,000 cells/well (100 μL) in a 384 well plate. CHOnfat/hM1 and CHOnfat/hM3 Growth Medium: 90% DMEM (Hi Glucose); 10% HI FBS; 2 mM L-glutamine; 0.1 mM NEAA; Pen-Strep; and 1 mg/ml Geneticin, are added. For M2Gqi5CHOnfat and M4Gqi5CHOnfat cells, an additional 600 μg/ml hygromycin is added.
Equipment: 384 well plate, 120 μL addition plate; 96-well Whatman 2 ml Uniplate Incubator, 37° C., 5% CO2; Skatron EMBLA-384 Plate Washer; Multimek Pipetting System; Genesis Freedom 200 System; Mosquito System; Temo Nanoliter Pipetting System; and FLIPR^384 Fluorometric Imaging Plate Reader System are used.
Buffers. Assay Buffer: Hanks Balanced Salt Solution, with 20 mM Hepes, 2.5 mM Probenecid (Sigma P-8761) first dissolved in 1 N NaOH, 1% Bovine Serum Albumin (Sigma A-9647). Dye Loading Buffer: Assay Buffer plus 1% Fetal Bovine Serum and Fluo-4AM/Pluronic Acid Mixture. 2 mM Fluo-4AM ester stock in DMSO (Molecular Probes F-14202) Concentration of 2 μM in buffer for a final concentration of 1 μM in Assay. 20% Pluronic Acid Solution stock, with concentration of 0.04% in Buffer, 0.02% in Assay.
65 μL of 2 mM Fluo-4AM are mixed with 130 μL of 20% Pluronic Acid. The resulting solution and 650 μL FBS is added to the assay buffer for a total volume of 65 mL. Positive Controls: 4-Br-A23187: 10 mM in DMSO; final concentration 10 μM. Acetylcholine: 10 mM in water, working stock at both 20 μM and 30 μM in assay buffer, final concentration of 10 μM. This is used to check the maximum stimulation of the CHOK1/hM1 cells. 20 μM (2×) acetylcholine is added in the preincubation part of the assay, and the 30 μM (3×) stock is added in the second part. (EC20) Acetylcholine: 10 mM in water, working stock of 9 nM (3×), and final concentration in assay is 3 nM. This is used after the preincubation with test compounds. Addition of the EC20 Acetylcholine to each well with a test compound will ascertain any modulator activity. 24 wells contain 3 nM Acetylcholine alone as a control.
Screening Plate: Compounds are titrated in 96-well plates (columns 2-11), 100% DMSO, started at a concentration of 15 mM (150× stock concentration), and 3-fold serial dilutions using Genesis Freedom200 System. Four 96-well plates are combined into a 384-well plate using Mosquito Nanoliter Pipetting System by transferring 1 μl of serial diluted compounds to each well, and 1 mM acetylcholine (100× stock concentration) were added as a control. Using Temo, 49 μl assay buffer is added to each well of the 384-well plate right before assay.
In a 96-well Whatman 2 ml Uniplate, 9 nM Acetylcholine (3×) is pipetted into wells corresponding to the screening compounds, and into control wells. The 30 μM acetylcholine control (3×) is added into control wells, and the 3× agonist plate is transferred into a 384 well plate.
Cells are washed three times with 100 μL of buffer, leaving 30 μL of buffer in each well. Using Multimek, 30 μL of Dye Loading Buffer is added into each well and incubated at 37° C., 5% CO2 for up to one hr.
After 60 min, the cells are washed three times with 100 μL of buffer, leaving 30 μL of buffer in each well. The cell plate, screening plate, and agonist addition plates are placed on the platform in the FLIPR and the door closed. A signal test to check background fluorescence and basal fluorescence signal is performed. Laser intensity is adjusted if necessary. […]

Row | Structure (SMILES) | EC50 [µM]
1 | N#CC1(c2ccccc2)CCN(Cc2cc(C(=O)N[C@H]3COCC[C@@H]3O)c(=O)n3ccccc23)CC1 [Example 11, 1-[(4-Cyano-4-phenylpiperidin-1-yl)methyl]-N-[(3S,4S)-4-hydroxytetrahydro-2H-pyran-3-yl]-4-oxo-4H-quinolizine-3-carboxamide] | 0.56
2 | C[C@]1(O)CCCC[C@@H]1NC(=O)c1cc(CN2CCC(C#N)(c3ccccn3)CC2)c2ccccn2c1=O (racemic) [Example 14, rac-1-[(4-Cyano-4-pyridin-2-ylpiperidin-1-yl)methyl]-N-[(1R,2R)-2-hydroxy-2-methylcyclohexyl]-4-oxo-4H-quinolizine-3-carboxamide] | 0.093
3 | N#CC1(c2ccccn2)CCN(Cc2cc(C(=O)N[C@H]3CCOC[C@@H]3O)c(=O)n3ccccc23)CC1 (racemic) [Example 7, rac-1-[(4-Cyano-4-pyridin-2-ylpiperidin-1yl)methyl]-N-[(3R,4S)-3-hydroxytetrahydro-2H-pyran-4-yl]-4-oxo-4H-quinolizine-3-carboxamide] | 0.025
4 | N#CC1(c2ccccc2)CCN(Cc2cc(C(=O)N[C@@H]3CCOC[C@H]3O)c(=O)n3ccccc23)CC1 [Example 9, 1-[(4-Cyano-4-phenylpiperidin-1-yl)methyl]-N-[(3S,4R)-3-hydroxytetrahydro-2H-pyran-4-yl]-4-oxo-4H-quinolizine-3-carboxamide] | 0.53
5 | N#CC1(c2ncc(Br)cc2Br)CCN(Cc2cc(C(=O)N[C@H]3CCOC[C@@H]3O)c(=O)n3ccccc23)CC1 [Example 10, 1-{[4-Cyano-4-(3,5-dibromopyridin-2-yl)piperidin-1-yl]methyl}-N-[(3R,4S)-3-hydroxytetrahydro-2H-pyran-4-yl]-4-oxo-4H-quinolizine-3-carboxamide] | 0.014
6 | N#CC1(c2ccccc2Br)CCN(Cc2cc(C(=O)N[C@H]3CCCC[C@@H]3O)c(=O)n3ccccc23)CC1 [Example 12] | 0.024

Same assay, conditions: CHOnfat/hM1 cells, 4 min preincubation, then EC20 acetylcholine (3 nM final), FLIPR Ca2+; read-out: IP Value (inflection point)

Row | Structure (SMILES) | EC50 [µM]
7 | N#CC1(c2ccccn2)CCN(Cc2cc(C(=O)N[C@H]3CCCC[C@@H]3Br)c(=O)n3ccccc23)CC1 (racemic) [Example 13, rac-N-[(1R,2R)-2-Bromocyclohexyl)-1-[(4-cyano-4-pyridin-2-ylpiperidin-1-yl)methyl]-4-oxo-4H-quinolizine-3-carboxamide] | 0.48
8 | CS(=O)(=O)[C@H]1CCCC[C@@H]1NC(=O)c1cc(CN2CCC(C#N)(c3ccccn3)CC2)c2ccccn2c1=O (racemic) [Example 18, rac-1-[(4-Cyano-4-pyridin-2-ylpiperidin-1-yl)methyl]-N-[(1R,2R)-2-(methylsulfonyl)cyclohexyl]-4-oxo-4H-quinolizine-3-carboxamide] | 0.8
9 | Cn1cc(-c2ccc(Cc3cc(C(=O)N[C@H]4CCCC[C@@H]4O)c(=O)n4ccccc34)nc2)cn1 [Example 3, N-[(1S,2S)-2-Hydroxycyclohexyl]-{-[5-(1-methyl-1H-pyrazol-4-yl)pyridine-2-yl]methyl}-4-oxo-4H-quinolizine-3-carboxamide] | 0.015
10 | O=C(N[C@H]1CCCC[C@@H]1O)c1cc(Cc2ccc(-n3cccn3)cn2)c2ccccn2c1=O [Example 4, N-[(1S,2S)-2-Hydroxycyclohexyl]-4-oxo-1-{[5-(1H-pyrazol-1-yl)pyridine-2-yl]methyl}-4H-quinolizine-3-carboxamide] | 0.444
11 | N#CC1(c2ccccn2)CCN(Cc2cc(C(=O)NC3CCOCC3)c(=O)n3ccccc23)CC1 [Example 1, 1-[(4-Cyano-4-pyridin-2-ylpiperidin-1-yl)methyl]-4-oxo-4H—N-(tetrahydro-2H-pyran-4-yl)-4H-quinolizine-3-carboxamide] | 0.34
12 | N#CC1(c2ccccn2)CCN(Cc2cc(C(=O)N[C@@H]3CCCCC3=O)c(=O)n3ccccc23)CC1 [Example 15, 1-[(4-Cyano-4-pyridin-2-ylpiperidin-1-yl)methyl]-4-oxo-N-[(1R)-2-oxocyclohexyl]-4H-quinolizine-3-carboxamide] | 0.66
13 | N#CC1(c2ccccn2)CCN(Cc2cc(C(=O)N[C@H]3COCC[C@@H]3O)c(=O)n3ccccc23)CC1 (racemic) [Example 8, rac-1-[(4-Cyano-4-pyridin-2-ylpiperidin-1yl)methyl]-N-[(3R,4R)-4-hydroxytetrahydro-2H-pyran-3-yl]-4-oxo-4H-quinolizine-3-carboxamide] | 0.22
14 | Cc1cccn2c(=O)c(C(=O)NC3CCOCC3)cc(CN3CCC(C#N)(c4ccccn4)CC3)c12 [Example 25, 1-[(4-Cyano-4-pyridin-2-ylpiperidin-1-yl)methyl]-9-methyl-4-oxo-N-(tetrahydro-2H-pyran-4-yl)-4H-quinolizine-3-carboxamide] | 2.1
15 | C[S@@+]([O-])[C@H]1CCCC[C@@H]1NC(=O)c1cc(CN2CCC(C#N)(c3ccccn3)CC2)c2ccccn2c1=O (racemic) [Example 17, rac-1-[(4-Cyano-4-pyridin-2-ylpiperidin-1-yl)methyl]-N-{(1R,2R)-2-[(S)-methylsulfinyl]cyclohexyl}-4-oxo-4H-quinolizine-3-carboxamide] | 2.6
16 | O=C(N[C@H]1CCCC[C@@H]1O)c1cc(Cc2ccc(Br)cn2)c2ccccn2c1=O [Example 2, 1-[(5-Bromopyridin-2-yl)methyl]-N-[(1S,2S)-2-hydroxycyclohexyl]-4-oxo-4H-quinolizine-3-carboxamide] | 0.105
17 | N#Cc1ccnc(C2(C#N)CCN(Cc3cc(C(=O)N[C@H]4CCCC[C@@H]4O)c(=O)n4ccccc34)CC2)c1 [Example 22, 1-{[4-Cyano-4-(4-cyanopyridin-2-yl)piperidin-1-yl]methyl}-N-[(1S,2S)-2-hydroxycyclohexyl]-4-oxo-4H-quinolizine-3-carboxamide] | 0.28
18 | CS[C@H]1CCCC[C@@H]1NC(=O)c1cc(CN2CCC(C#N)(c3ccccn3)CC2)c2ccccn2c1=O (racemic) [Example 16, rac-1-[(4-Cyano-4-pyridin-2-ylpiperidin-1-yl)methyl]-N-[(1R,2R)-2-(methylthio)cyclohexyl]-4-oxo-4H-quinolizine-3-carboxamide] | 0.18
19 | N#CC1(c2ccccn2)CCN(Cc2cc(C(=O)NC3CCCNC3)c(=O)n3ccccc23)CC1 (centres unmarked) [Example 19, 1-[(4-Cyano-4-pyridin-2-ylpiperidin-1-yl)methyl]-4-oxo-N-piperidin-3-yl-4H-quinolizine-3-carboxamide] | 1.8
20 | Cn1cc(N2CCN(Cc3cc(C(=O)N[C@H]4CCCC[C@@H]4O)c(=O)n4ccccc34)CC2=O)cn1 [Example 6, N-[(1S,2S)-2-Hydroxycyclohexyl]-1-{[4-(1-methyl-1H-pyrazol-4-yl)-3-oxopiperazin-1-yl]methyl}-4-oxo-4H-quinolizine-3-carboxylate] | 0.17
